The values below come from patent US20240025849A1 (MAX DELBRÜCK-CENTRUM FÜR MOLEKULARE MEDIZIN IN DER …, priority 2020, published 2024).

Series [1] relates to primary cultured neonatal microglia. As to the kind of experiment: IFNγ induced NO release, Griess assay. The class given is cell-based, mouse. Conditions: for level of NO, % of its initial concentration (stimulated control): 100 ng/ml IFNγ 48 hours. The procedure: Primary cultured neonatal microglia. For preparation of cultured neonatal microglia, P0-P3 mice were used. 10 brains were extracted, meninges and cerebellum were removed and put on ice with Hank's balanced salt solution (HBSS). The dissected brains were washed 3 times before adding 400 μL trypsin (0.1 mg/L) and DNAse (5 μg/L) in phosphate buffered saline (PBS). After 2 min of incubation with this solution, the reaction was blocked by adding plain medium. After removal of the medium, 1 mg DNAse was added and the cells were mechanically dissociated, with a Pasteur pipette followed by a glass pipette. The cells were centrifuged for 10 min at 129 g at 4° C. The supernatant was discarded. The pellet was resuspended in plain medium and plated (2.5 brains/flask) in Poly-L-Lysine coated flasks. The cells were washed after 2 days with PBS and incubated for another 7 days in plain medium. Afterwards the medium was replaced by plain medium with 33% L929 conditioned medium. After 2 days, cells were harvested by shaking them for 30 min at 150 rpm. The supernatant was centrifuged for 10 min at 129 g at 4° C. The cells were plated into a 96 well plate (100 000 cells/well, 200 μL medium per well). This procedure could be repeated 2 times with a 2 day interval.
Griess assay. Cells were seeded according to the protocols described above, after compounds and stimuli were added, 100 μl of supernatant was transferred into a new 96 well plate and 100 μl freshly mixed Griess reagent were added. Griess reagent was composed of reagent A (100 mg Naphthylethylene in 50 ml aqua dest.) and reagent B (1 g Sulfanilamide, […] H3PO4 (85%) in 44 mL aqua dest.) mixed 1:1. The solution was carefully mixed and the absorbance was determined in a microplate reader at a wavelength of 550 nm.
In order to test whether C1 decreases NO release induced by other stimulation agents besides LPS which is mimicking a bacterial infection, the inventors used IFNγ to mimic a Th1 cell response (Yau et al., 2016) and PolyIC to mimic an anti-viral response (Jiang and Pisetsky, 2006). Given that our aim is to determine the compound's effect on already stimulated microglia (LPS, IFNγ, and PolyIC), each individual experiment is normalized to its stimulated control.

Series [2] deals with nNOS. As to the kind of experiment: NOS enzyme activity assay (Eurofins), nNOS. The class given is biochemical. The conditions noted are these: C1: 1 nM and 1 μM; 30 min reaction. How it is done:
In mammalians NO is produced by the three isoforms of NOS: iNOS, eNOS, and nNOS. To evaluate the direct influence of cl on the different isoforms of NOS, an enzyme activity assay was conducted by Eurofins. C1 was mixed with the enzyme buffer, which included co-factors and substrates and by adding the enzyme the reaction was initiated. After 30 min the reaction was stopped, and NO concentration was measured. The results are normalised to positive control performed without any additional compounds and are presented as percentage in inhibition. […] To test the compounds effect on iNOS a concentration range from […] 5 μM were applied ([…], 1, 10, 100 nM, 1, and 5 μM), and for testing eNOS and nNOS 1 nM and 1 μM were applied.

Series [3] relates to bone marrow derived macrophages. As to the kind of experiment: AlamarBlue assay (metabolic activity) in macrophages. Format: cell-based, mouse. Conditions: for cell (metabolic) activity, % of positive control: 1 μg/mL LPS 48 hours. How it is done:
Primary cultured macrophages. Bone marrow macrophages were isolated from C57BL/6 adult mice ([…]-56) as previously described (Marim et al., 2010). In summary, mice were killed by cervical dislocation and the femurs were removed by cutting through the tibia near the pelvic bone and below the knee. Any muscle connected to the bone was carefully removed. Ice cold sterile PBS was slowly flushed through the bone and the contents were collected in a sterile 15 mL polypropylene tube on ice. After centrifugation for 10 min at 200 g at 4° C., red blood cells were lysed by adding 3-10 mL ammonium chloride solution. After a 3-5 min recovery period, the suspension was centrifuged for 10 min at 200 g at 4° C. and the supernatant was removed. Cells were plated in a 10 cm dish with plain medium containing 10 ng/mL M-CSF and cultured for 7 days to allow differentiation. 50 000 cells were plated with 200 μL medium per well in a 96 well plate. AlamarBlue assay. Cells were seeded according to the protocols described above, after compounds and stimuli were added, the cells were washed once with HBSS (37° C.) and 100 μl of a 1:10 AlamarBlue (Thermo Fisher Scientific) dilution in plain medium was added. The conversion of resazurin to resorufin was measured by absorbance (absorbance wavelength of 570 nm and a reference wavelength of 600 nm) after 3 hours.
In general terms: The colour change of resazurin is a common sign of viable cells or microbes.

In series [4] the test system is primary cultured neonatal astrocytes. Nature of the series: Propidium iodide based proliferation and cell death assay in astrocytes. Conditions: 2.5 μM C1, 48 hours, unstimulated. How it is done:
Primary cultured neonatal astrocytes. The preparation of primary cultured neonatal astrocytes followed the preparation of the primary cultured neonatal microglia, described above. After the third shake off, the remaining astrocytes were trypsinated, washed with PBS and seeded into a 96 well plate (10 000 cells/well, 200 μL medium per well).
Propidium iodide based proliferation and cell death assay. To determine the relative proliferation and cell death, the cells were seeded into a […], let adhere for 24 hours and afterwards treated for additional 48 hours. The supernatant was removed, and the cells were washed carefully with 37° C. HBSS once. 1/200 propidium iodide PBS solution was added and the cells were incubated for 10 minutes. The intensity of the propidium iodide signal of the dead cells was measured using a microplate reader. Afterwards, all cells were killed with a 10 min incubation of 10% DMSO and the propidium iodide signal of all cells was measured. All signals were corrected for the background noise, subtracting the blank signal. The percentage of dead cells was calculated by dividing the dead-cell-signal by the all-cell-signal. Proliferation was calculated as a relative value to the plain medium control.

Entries after “also recorded” stand apart in the source; their conditions may differ.

As for `COc1ccc(NC(=O)C(NC(=O)C2CCCN2C(=O)OCc2ccccc2)c2ccc(OC)cc2)cc1` (centres unmarked) [C1], the figures for the “level of NO, % of its initial concentration (stimulated control)” value in series [1] (25 nM C1), in series [1] (250 nM C1) and in series [1] (2.5 μM C1) were 84%, 41% and 22%, respectively. Also, the “NO release upon stimulation with IFNγ” value in series [1] (pre-treatment with C1) was “dose dependent decrease”. In addition, the “enzymatic activity of nNOS” value in series [2] was “does not interfere”. Further, the “cell (metabolic) activity, % of positive control” value worked out at 78.47±31.61% in series [3] (0.025 μM C1), 69.31±36.50% in series [3] (0.25 μM C1) and 66.48±31.17% in series [3] (2.5 μM C1). For the same compound, the “metabolic activity of PolyIC stimulated macrophages” value is recorded as “reduction of metabolic activity; also recorded: deceased significantly” in series [3] (0.025 μM C1, 100 μg/mL PolyIC 24 hours) and “did not show a significant difference” in series [3] (higher concentrations of C1 (0.25, 2.5 μM)). Moreover, the “metabolic activity of IFNγ stimulated macrophages” value in series [3] (0.25 μM and 2.5 μM C1, 100 ng/mL IFNγ 48 hours) was “significant decrease in metabolic activity; also recorded: decreased the metabolic of IFNγ (100 ng/ml) significantly compared to plain medium”. Further, in series [3] (all tested concentrations of C1), the “metabolic activity of macrophages stimulated with LPS” value is reported as “decreased the metabolic activity”. Moreover, in series [4], the “astrocytes cell death rate” value is given as “no significant effect”. Besides, in series [4], the proliferation of astrocytes result was “did not show an effect”.
